Test results from patent publication US6410792B1, “Amide derivatives and methods for using the same as selective neuropeptide Y receptor antagonists” (Bayer Corporation, priority 1997, dated 2002).
Like-named read-outs stand apart in the source and are kept apart here.

What was measured:
Y2 receptor = biological target: T1, Y2 receptor (Homo sapiens, UniProt P49146); test: Y2 receptor binding assay ([125I]PYY, membrane protein); conditions: [125I]PYY binding, membrane protein; read-out: hNPY2 IC50
T1 sequence (P49146 1-381): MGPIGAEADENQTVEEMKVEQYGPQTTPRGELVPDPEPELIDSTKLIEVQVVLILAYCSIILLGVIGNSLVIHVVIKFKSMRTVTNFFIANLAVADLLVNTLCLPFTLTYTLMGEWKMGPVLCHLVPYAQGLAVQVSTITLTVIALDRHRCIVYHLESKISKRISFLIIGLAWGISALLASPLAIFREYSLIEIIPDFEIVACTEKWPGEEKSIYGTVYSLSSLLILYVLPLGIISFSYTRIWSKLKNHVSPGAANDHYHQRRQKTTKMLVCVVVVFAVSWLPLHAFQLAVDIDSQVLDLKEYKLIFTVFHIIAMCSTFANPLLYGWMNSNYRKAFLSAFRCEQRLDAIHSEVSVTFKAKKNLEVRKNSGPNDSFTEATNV
Experimental: B. Human Y2 and Y4/PP1 Receptor Binding Assays
Binding assays were performed on GF/C Millipore 96-well plates pretreated with 0.02% polyethylenimine. The binding buffer for rat Y2 binding is Krebs-Ringer bicarbonate (pH 7.4) containing 0.01% BSA and 0.005% bacitracin. Samples consist of membrane protein, 25 pM [1251]PYY and drug dilution. Nonspecific binding is defined by 1 μM NPY. The binding buffer for human Y4/PP1 binding consists of 137 mM NaCl, 5.4 mM KCl, 0.44 mM KH2PO4, 1.26 mM CaCl2, 0.81 mM MgSO4, 20 mM HEPES, 1 mM dithiothreitol, 0.1% bacitracin, 100 mg/l streptomycin sulfate, 1 mg/l aprotinin, 10 mg/ml soybean trypsin inhibitor and 0.3% BSA, pH 7.4. Samples consist of membrane protein, 50 pM human [1251]human PP (hPP: NEN DuPont, Boston, Mass.) and drug dilution. 1 μM hPP is used to define nonspecific binding.
After a 2 hour incubation at room temperature with constant mixing, the samples are aspirated on a vacuum manifold, and rinsed with ice-cold binding buffer. The amount of radioactivity in each well is quantitated with either gamma counting or liquid scintillation.

Human NPY5 receptor = biological target: T2, Human NPY5 receptor (Homo sapiens, UniProt Q15761); test: Human NPY5 receptor binding assay ([125I]PYY, membrane protein)
T2 sequence (Q15761 1-445): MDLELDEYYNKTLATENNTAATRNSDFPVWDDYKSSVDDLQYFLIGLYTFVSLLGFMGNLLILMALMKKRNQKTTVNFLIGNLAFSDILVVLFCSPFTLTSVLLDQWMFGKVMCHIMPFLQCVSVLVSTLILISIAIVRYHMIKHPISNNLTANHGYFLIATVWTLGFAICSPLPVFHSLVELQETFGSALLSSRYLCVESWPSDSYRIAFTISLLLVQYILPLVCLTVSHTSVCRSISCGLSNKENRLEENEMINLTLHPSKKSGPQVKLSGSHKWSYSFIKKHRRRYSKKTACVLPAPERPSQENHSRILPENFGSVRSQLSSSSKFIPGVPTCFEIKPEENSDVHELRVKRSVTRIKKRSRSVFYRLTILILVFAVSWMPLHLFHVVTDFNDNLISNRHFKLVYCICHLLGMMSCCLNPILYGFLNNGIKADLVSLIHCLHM
Experimental: C. Human and Rat NPY5 Receptor Binding Assays
Binding assays are performed on GF/C Millipore 96well plates pretreated with 0.02% polyethylenimine. The binding buffer is 25 mM Tris, 120 mM NaCl, 5 mM KCl, 1.2 mM KH2PO4, 2.5 mM CaCl2, 1.2 mM MgSO4, 0.1% BSA and 0.5 mg/ml bacitracin, pH 7.4. Samples consist of membrane protein, 75-100 pM [125I]PYY (porcine, NEN-DuPont) and drug dilution. Nonspecific binding is defined by 1 μM PYY. After a 2 hour incubation at room temperature with constant mixing, the samples are aspirated on a vacuum manifold, and rinsed with ice-cold binding buffer. The amount of radioactivity in each well is quantitated with either gamma counting or liquid scintillation.

[1] = [125I]PYY binding, read-out: hNPY5 IC50

`O=C(CN1CCN(c2ccccc2Cl)CC1)Nc1ccc(C2CCCCC2)cc1` [Compound 3, 2-[4-(2-Chloro-phenyl)-piperazin-1-yl]-N-(4-cyclohexyl-phenyl)-acetamide] gave an IC50 (Y2 receptor) of over 5 µM and an IC50 (Human NPY5 receptor; [1]) of 0.19 µM.

Compound `O=C(CN1CCOCC1)Nc1ccc(C(=O)c2ccccc2)cc1` [Compound 6, N-(4-Benzoyl-phenyl)-2-morpholin-4-yl-acetamide] has an IC50 (Y2 receptor) of over 5 µM and an IC50 (Human NPY5 receptor; [1]) of 0.8 µM.

`CCN(CC)CC(=O)Nc1ccc(C(=O)c2ccccc2)cc1` [Compound 7, N-(4-Benzoyl-phenyl)-2-diethylamino-acetamide] was tested, and the IC50 (Y2 receptor) was over 5 µM and the IC50 (Human NPY5 receptor; [1]) was 1.6 µM.

`O=C(CN1CCN(c2ccccc2Cl)CC1)Nc1ccc(C(=O)c2ccccc2)cc1` [Compound 8, N-(4-Benzoyl-phenyl)-2-[4-(2-chloro-phenyl)-piperazin-1-yl]-acetamide] gave an IC50 (Y2 receptor) of over 5 µM and an IC50 (Human NPY5 receptor; [1]) of 0.96 µM.

`O=C(CN1CCN(c2cccc(Cl)c2)CC1)Nc1ccc(C(=O)c2ccccc2)cc1` [Compound 9] gave an IC50 (Y2 receptor) of over 5 µM and an IC50 (Human NPY5 receptor; [1]) of 0.64 µM.

`O=C(CN1CCN(c2ccc(Cl)cc2)CC1)Nc1ccc(C(=O)c2ccccc2)cc1` [Compound 10, N-(4-Benzoyl-phenyl)-2-[4-(4-chloro-phenyl)-piperazin-1-yl]-acetamide] showed an IC50 (Y2 receptor) of over 5 µM and an IC50 (Human NPY5 receptor; [1]) of 2.9 µM.

For `O=C(CNCc1ccccc1)Nc1ccc(C2CCCCC2)cc1` [Compound 11, 2-Benzylamino-N-(4-cyclohexyl-phenyl)-acetamide], the IC50 (Y2 receptor) was over 5 µM and the IC50 (Human NPY5 receptor; [1]) was 2.8 µM.

With `O=C(CN1CCN(Cc2ccccc2)CC1)Nc1ccc(C2CCCCC2)cc1` [Compound 13, 2-(4-Benzyl-piperazin-1-yl)-N-(4-cyclohexyl-phenyl)-acetamide] the IC50 (Y2 receptor) was over 5 µM and the IC50 (Human NPY5 receptor; [1]) was 9.1 µM.

`O=C(CN(CCO)c1ccccc1)Nc1ccc(C2CCCCC2)cc1` [Compound 14, N-(4-cyclohexyl-phenyl)-2-[(2-hydroxy-ethyl)-phenyl-amino]-acetamide] was tested, and the IC50 (Y2 receptor) was over 5 µM and the IC50 (Human NPY5 receptor; [1]) was 1.8 µM.

`O=C(CN1CCN(Cc2ccccc2)CC1)Nc1ccc(C(=O)c2ccccc2)cc1` [Compound 16, N-(4-Benzoyl-phenyl)-2-(4-benzyl-piperazin-1-yl)-acetamide] showed an IC50 (Y2 receptor) of over 5 µM and an IC50 (Human NPY5 receptor; [1]) of 9.6 µM.

For `O=C(CN(CCO)c1ccccc1)Nc1ccc(C(=O)c2ccccc2)cc1` [Compound 17, N-(4-Benzoyl-phenyl)-2-[(2-hydroxy-ethyl)-phenyl-amino]-acetamide], the IC50 (Y2 receptor) was over 5 µM and the IC50 (Human NPY5 receptor; [1]) was 1.2 µM.

In the case of `O=C(CN1CC=C(c2ccc(Cl)cc2)CC1)Nc1ccc(C(=O)c2ccccc2)cc1` [Compound 18, N-(4-Benzoyl-phenyl)-2-[4-(4-chloro-phenyl)-3,6-dihydro-2H-pyridin-1-yl]-acetamide], the IC50 (Y2 receptor) is reported as over 5 µM and the IC50 (Human NPY5 receptor; [1]) is reported as 5.2 µM.

Compound `O=C(CN1CCC(O)(Cc2ccccc2)CC1)Nc1ccc(C(=O)c2ccccc2)cc1` [Compound 19, N-(4-Benzoyl-phenyl)-2-(4-benzyl-4-hydroxy-piperidin-1-yl)-acetamide] has an IC50 (Y2 receptor) of over 5 µM and an IC50 (Human NPY5 receptor; [1]) of 0.4 µM.

`O=C(CN1[C@@H](C(=O)O)CC[C@@H]1O)Nc1ccc(C(=O)c2ccccc2)cc1` [Compound 20, (5S,2R)-1-[(4-Benzoyl-phenylcarbamoyl)-methyl]-5-hydroxy-pyrrolidine-2-carboxylic acid] was tested, and the IC50 (Y2 receptor) was over 5 µM and the IC50 (Human NPY5 receptor; [1]) was 7.6 µM.

With `CCN(CC(=O)Nc1ccc(C(=O)c2ccccc2)cc1)Cc1ccncc1` [Compound 21, N-(4-Benzoyl-phenyl)-2-(ethyl-pyridin-4-ylmethyl-amino)-acetamide] the IC50 (Y2 receptor) was over 5 µM and the IC50 (Human NPY5 receptor; [1]) was 0.63 µM.

With `O=C(CN(c1ccccn1)c1ccccn1)Nc1ccc(C(=O)c2ccccc2)cc1` [Compound 22, N-(4-Benzoyl-phenyl)-2-(di-pyridin-2-yl-amino)-acetamide] the IC50 (Y2 receptor) was over 5 µM and the IC50 (Human NPY5 receptor; [1]) was 9.9 µM.

Work on `O=C(CN1CCC(CCCC2CCNCC2)CC1)Nc1ccc(C2CCCCC2)cc1` [Compound 23, N-(4-Cyclohexyl-phenyl)-2-[4-(3-piperidin-4-yl-propyl)-piperidin-1-yl]-acetamide] yielded an IC50 (Y2 receptor) of over 5 µM and an IC50 (Human NPY5 receptor; [1]) of over 10 µM.

`O=C(CN1CCC(N2CCCCC2)CC1)Nc1ccc(C2CCCCC2)cc1` [Compound 24, 2-[1,4′]Bipiperidinyl-1′-yl-N-(4-cyclohexyl-phenyl)-acetamide] showed an IC50 (Y2 receptor) of over 5 µM and an IC50 (Human NPY5 receptor; [1]) of 2.9 µM.

For `O=C(CNCC1CCNCC1)Nc1ccc(C2CCCCC2)cc1` [Compound 28, N-(4-Cyclohexyl-phenyl)-2-[(piperidin-4-ylmethyl)-amino]-acetamide], the IC50 (Y2 receptor) was over 5 µM and the IC50 (Human NPY5 receptor; [1]) was 8.9 µM.

`O=C(CN1CCC(N2CCCC2)CC1)Nc1ccc(C2CCCCC2)cc1` [Compound 29] gave an IC50 (Y2 receptor) of over 5 µM and an IC50 (Human NPY5 receptor; [1]) of 4.4 µM.

Compound `NC(=O)C1(Nc2ccccc2)CCN(CC(=O)Nc2ccc(C3CCCCC3)cc2)CC1` [Compound 31, 1-[(4-Cyclohexyl-phenylcarbamoyl)-methyl]-4-phenylamino-piperidine-4-carboxylic acid amide] has an IC50 (Y2 receptor) of over 5 µM and an IC50 (Human NPY5 receptor; [1]) of 1.2 µM.

In the case of `CN(C)C1CCN(CC(=O)Nc2ccc(C3CCCCC3)cc2)CC1` [Compound 32, N-(4-Cyclohexyl-phenyl)-2-(4-dimethylamino-piperidin-1-yl)-acetamide], the IC50 (Y2 receptor) is reported as over 5 µM and the IC50 (Human NPY5 receptor; [1]) is reported as 3 µM.

`CC1CCN(CC(=O)Nc2ccc(C3CCCCC3)cc2)CC1` [Compound 33, N-(4-Cyclohexyl-phenyl)-2-(4-methyl-piperidin-1-yl)-acetamide] gave an IC50 (Y2 receptor) of over 5 µM and an IC50 (Human NPY5 receptor; [1]) of over 10 µM.

Work on `CC1(C)CCN(CC(=O)Nc2ccc(C3CCCCC3)cc2)CC1` [Compound 34, N-(4-Cyclohexyl-phenyl)-2-(4,4-dimethyl-piperidin-1-yl)-acetamide] yielded an IC50 (Y2 receptor) of over 5 µM and an IC50 (Human NPY5 receptor; [1]) of 1.4 µM.

Work on `NC(=O)C1(NC2CCCCC2)CCN(CC(=O)Nc2ccc(C3CCCCC3)cc2)CC1` [Compound 35, 4-Cyclohexylamino-1-[(4-cyclohexyl-phenylcarbamoyl)-methyl]-piperidin-4-carboxylic acid amide] yielded an IC50 (Y2 receptor) of over 5 µM and an IC50 (Human NPY5 receptor; [1]) of 0.63 µM.

For `CN(C)C1(C(N)=O)CCN(CC(=O)Nc2ccc(C3CCCCC3)cc2)CC1` [Compound 36, 1-[(4-Cyclohexyl-phenylcarbamoyl)-methyl]-4-dimethylamino-piperidine-4-carboxylic acid amide], the IC50 (Y2 receptor) was over 5 µM and the IC50 (Human NPY5 receptor; [1]) was 0.71 µM.

With `O=C(CN1CCC(CCCC2CCNCC2)CC1)Nc1ccc(C(=O)c2ccccc2)cc1` [Compound 37, N-(4-Benzoyl-phenyl)-2-[4-(3-piperidin-4-yl-propyl)-piperidin-1-yl]-acetamide] the IC50 (Y2 receptor) was over 5 µM and the IC50 (Human NPY5 receptor; [1]) was over 10 µM.

`O=C(CN1CCC(Cc2ccccc2)CC1)Nc1ccc(C(=O)c2ccccc2)cc1` [Compound 38, N-(4-Benzoyl-phenyl)-2-(4 benzyl-piperidin-1-yl)-acetamide] gave an IC50 (Y2 receptor) of over 5 µM and an IC50 (Human NPY5 receptor; [1]) of 8.5 µM.

`O=C(CN1CCC(N2CCCCC2)CC1)Nc1ccc(C(=O)c2ccccc2)cc1` [Compound 39, N-(4-Benzoyl-phenyl)-2-[1,4′]bipiperidinyl-1′-yl-acetamide] showed an IC50 (Y2 receptor) of over 5 µM and an IC50 (Human NPY5 receptor; [1]) of 2.1 µM.

With `O=C(CN1CCC(C(=O)O)CC1)Nc1ccc(C(=O)c2ccccc2)cc1` [Compound 40, 1-[(4-Benzoyl-phenylcarbamoyl)-methyl]-piperidine-4-carboxylic acid] the IC50 (Y2 receptor) was over 5 µM and the IC50 (Human NPY5 receptor; [1]) was over 10 µM.

Compound `O=C(CN1CCC(O)(c2ccccc2)CC1)Nc1ccc(C(=O)c2ccccc2)cc1` [Compound 41, N-(4-Benzoyl-phenyl)-2-(4-hydroxy-4-phenyl-piperidin-1-yl)-acetamide] has an IC50 (Y2 receptor) of over 5 µM and an IC50 (Human NPY5 receptor; hNPY5 IC50, [125I]PYY binding) of 0.06 µM.
